Measured values published in BindingDB's records for doi:10.1080/14756360400004565 (Universit&Eacute, 2004).

The compounds below were run against Glycogen synthase kinase-3 beta (Homo sapiens, UniProt P49841) (assay: Kinase Assay).
Description: Kinase activities were assayed according to the methodology developed by the Cell Cycle Group of the Station Biologique (CNRS).

Sequence of Glycogen synthase kinase-3 beta (P49841 whole entry): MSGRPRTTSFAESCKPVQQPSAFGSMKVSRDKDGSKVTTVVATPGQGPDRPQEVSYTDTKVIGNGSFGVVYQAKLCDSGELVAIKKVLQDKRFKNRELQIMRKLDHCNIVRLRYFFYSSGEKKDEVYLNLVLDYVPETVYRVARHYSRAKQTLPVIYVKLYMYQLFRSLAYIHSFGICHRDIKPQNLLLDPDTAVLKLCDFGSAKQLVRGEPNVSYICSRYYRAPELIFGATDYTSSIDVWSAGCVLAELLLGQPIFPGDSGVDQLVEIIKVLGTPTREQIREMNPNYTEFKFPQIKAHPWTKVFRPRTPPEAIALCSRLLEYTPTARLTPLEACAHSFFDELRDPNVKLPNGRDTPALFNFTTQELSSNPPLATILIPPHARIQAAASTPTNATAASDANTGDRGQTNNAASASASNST

Structure (SMILES)	IC50 [µM]
COc1ccc(-c2csc3c2-n2cccc2C3=O)cc1OCc1ccccc1	> 50
CCC(=O)Oc1ccc(-c2csc3c2-n2cccc2C3=O)cc1OC(=O)CC [Thienopyrrolizine derivative, 4i]	> 50
COc1ccc(-c2csc3c2-n2cccc2C3=O)cc1OC(=O)C(C)(C)C [Thienopyrrolizine derivative, 4m]	> 50
COc1ccc(-c2csc3c2-n2cccc2C3=O)cc1OC(=O)CCCC(=O)O [Thienopyrrolizine derivative, 4n]	11
O=C1c2cscc2-n2cccc21 [Thienopyrrolizine derivative, 5]	> 50
COc1ccc(-c2csc3c2-n2cccc2C3O)cc1OCc1ccccc1 (centres undefined) [Thienopyrrolizine derivative, 13e]	> 50
COc1ccc(-c2csc3c2-n2cccc2C3O)cc1O (centres undefined) [Thienopyrrolizine derivative, 13g]	19

Results, then the compound that gave them:

IC50 [µM]	Structure (SMILES)
1.5	COc1ccc(-c2csc3c2-n2cccc2C3=O)cc1O [MR-22388]
> 50	Cc1ccc(-c2csc3c2-n2cccc2C3=O)cc1 [Thienopyrrolizine derivative, 4a]
> 50	COc1cccc(-c2csc3c2-n2cccc2C3=O)c1 [Thienopyrrolizine derivative, 4b]
> 50	CCOc1ccc(-c2csc3c2-n2cccc2C3=O)cc1 [Thienopyrrolizine derivative, 4c]
> 50	CC(=O)Oc1ccc(-c2csc3c2-n2cccc2C3=O)cc1OC(C)=O [Thienopyrrolizine derivative, 4h]
> 50	COc1ccc(-c2csc3c2-n2cccc2C3=O)cc1OC(C)=O [Thienopyrrolizine derivative, 4k]
> 50	CCOC(=O)Oc1cc(-c2csc3c2-n2cccc2C3=O)ccc1OC [Thienopyrrolizine derivative, 4l]
